Experimental data from US5686477A, “5-(arloxymethyl)oxazolines” (Adir et Compagnie, priority 1994, dated 1997).

Columns and labels:
imidazoline I2-receptors = test: Binding to imidazoline I2-receptors, displacement of [3H]-idazoxane (in vitro); conditions: [3H]-idazoxane + 10 μM norepinephrine; rabbit renal cortex
Text: (§1) EXAMPLE A: PROFILE OF BINDING TO IMIDAZOLINE I1 - AND I2 -RECEPTORS. (IN VITRO STUDY)
(§2) To measure in vitro the binding affinity of the compounds of the invention for I1 - and I2 -receptors, by determining the capacity of those compounds to displace specific radioligands of the imidazoline I1 - and I2 -receptors.
(§3) The following Table gives the radioligand used to label the receptor, the compound and the concentration selected to determine the non-specific fraction and the tissue selected.
(§4) Radioligand non specific
10^-5 M rabbit renal cortex

dipole moment = format: physicochemical
imidazoline I1-receptors = test: Binding to imidazoline I1-receptors, displacement of [3H]-clonidine (in vitro); conditions: [3H]-clonidine + 10 μM norepinephrine; bovine lateral reticular nucleus
Text: as §1, §2, §3, §4
10 μM of cold clonidine

| SMILES | pKa (pKa) | Ki (imidazoline I2-receptors) [nM] | dipole moment (dipole moment; benzene) [D] | dipole moment (dipole moment; dioxane) [D] | logP (log Po/w) | Ki (imidazoline I1-receptors) [nM] |
| --- | --- | --- | --- | --- | --- | --- |
| Cc1ccccc1OCC1CN=C(N)O1 (racemic) [Example 1, 5-[(2-METHYLPHENOXY)METHYL]-4,5-DIHYDRO-OXAZOL-2-YLAMINE] | 8.54 | 920 | 1.80 | 2.07 | 1.69 | 8.5 |
| Cc1ccccc1OCC1CN=C(N)O1 (single isomer, unassigned) [Example 28, 5-[(2-METHYLPHENOXY)METHYL]-4,5-DIHYDRO-OXAZOL-2-YLAMINE] | – | 13000 | – | – | – | 370 |
| Cc1ccccc1OCC1CN=C(N)O1 (single isomer, unassigned) [Example 29, 5-[(2-METHYLPHENOXY)METHYL]-4,5-DIHYDRO-OXAZOL-2-YLAMINE] | – | 7500 | – | – | – | 5.8 |
| Cc1cccc(C)c1OCC1CN=C(N)O1 (stereo not drawn) [Example 9, 5-[(2,6-DIMETHYLPHENOXY)METHYL]-4,5-DIHYDRO-OXAZOL-2-YLAMINE] | – | 2100 | – | – | – | 57 |
| Cc1ccc(OCC2CN=C(N)O2)c(C)c1 (stereo not drawn) [Example 10, 5-[(2,4-DIMETHYLPHENOXY)METHYL]-4,5-DIHYDRO-OXAZOL-2-YLAMINE] | – | 3900 | – | – | – | 160 |
| Cc1cccc(OCC2CN=C(N)O2)c1C (stereo not drawn) [Example 13, 5-[(2,3-DIMETHYLPHENOXY)METHYL]-4,5-DIHYDRO-OXAZOL-2-YLAMINE] | – | 450 | – | – | – | 64 |
| Cc1ccc(C)c(OCC2CN=C(N)O2)c1 (stereo not drawn) [Example 16, 5-[(2,5-DIMETHYLPHENOXY)METHYL]-4,5-DIHYDRO-OXAZOL-2-YLAMINE] | – | 1600 | – | – | – | 85 |
| Cc1cc(Cl)ccc1OCC1CN=C(N)O1 (stereo not drawn) [Example 17, 5-[(4-CHLORO-2-METHYLPHENOXY)METHYL]-4,5-DIHYDRO-OXAZOL-2-YLAMINE] | – | 1000 | – | – | – | 120 |
| CCc1ccccc1OCC1CN=C(N)O1 (stereo not drawn) [Example 18, 5-[(2-ETHYLPHENOXY)METHYL]-4,5-DIHYDRO-OXAZOL-2-YLAMINE] | – | 1800 | – | – | – | 100 |
| CC(C)c1ccccc1OCC1CN=C(N)O1 (stereo not drawn) [Example 19, 5-[(2-ISOPROPYLPHENOXY)METHYL]-4,5-DIHYDRO-OXAZOL-2-YLAMINE] | – | 2100 | – | – | – | 120 |
| NC1=NCC(COc2ccccc2F)O1 (stereo not drawn) [Example 20, 5-[(2-FLUOROPHENOXY)METHYL]-4,5-DIHYDRO-OXAZOL-2-YLAMINE] | – | 1300 | – | – | – | 210 |
| NC1=NCC(COc2ccccc2[N+](=O)[O-])O1 (stereo not drawn) [Example 21, 5-[(2-NITROPHENOXY)METHYL]-4,5-DIHYDRO-OXAZOL-2-YLAMINE] | – | 3900 | – | – | – | 500 |
| N#Cc1ccccc1OCC1CN=C(N)O1 (stereo not drawn) [Example 22, 5-[(2-CYANOPHENOXY)METHYL]-4,5-DIHYDRO-OXAZOL-2-YLAMINE] | – | 2400 | – | – | – | 48 |
| CC(=O)c1ccccc1OCC1CN=C(N)O1 (stereo not drawn) [Example 23, 5-[(2-ACETYLPHENOXY)METHYL]-4,5-DIHYDRO-OXAZOL-2-YLAMINE] | – | 7700 | – | – | – | 170 |
| CCCNC1=NCC(COc2ccccc2C)O1 (stereo not drawn) [Example 26, N-n-PROPYL-N-[5-(2-METHYLPHENOXY)METHYL-4,5-DIHYDRO-OXAZOL-2-YL]AMINE] | – | 1400 | – | – | – | 670 |
| CCNC1=NCC(COc2ccccc2C)O1 (stereo not drawn) [Example 27, N-ETHYL-N-[5-(2-METHYLPHENOXY)METHYL-4,5-DIHYDRO-OXAZOL-2-YL]AMINE] | – | 1000 | – | – | – | 170 |
